Experimental data taken from US20200188388A1, “METHODS AND COMPOSITIONS FOR PO[…] DRUGS AND REDUCING THEIR SIDE EFFECTS” (RVX THERAPEUTICS LTD., priority 2016, published 2020).

Legend:
Wistar rats [1] = assay: Rotenone model: hyperkinetic side effect in open field test (days 10 and 18); format: in vivo, rat; settings: locomotive activity in OF test increased more than 50% vs first day
Protocol: Anti-parkinsonian effect of therapy in rats with rotenone-induced PD was estimated according to elimination of extrapyramidal disorders (catalepsy) and oligokinesia (rapid decreased amplitude and velocity of repeated movements) in the “open field” test. The neuro-protective effect of therapy was evaluated by the elimination of ataxia limb dystonia and mortality in rats with rotenone-induced PSP. Hyperkinetic side action (hyper-locomotion) was evaluated by increased horizontal and vertical activity in the open field at the 10th and 18th day of the experiment, calculated in % compared to the first day of the experiment.
(§1) Ataxia and limb dystonia registration was performed twice daily, 30 minutes before administration of rotenone and 180 minutes after administration of rotenone. For each experimental group on a daily basis, throughout the whole period of observation number of rats with severe ataxia and limb dystonia (++−+++) and mortality in % of the total number of rats in group was determined. The neuro-protective effect of therapy (effects on rate of ataxia, limb dystonia and lethality) in rats with PSP was determined at days 12 and 19 of the experiment as reducing the number of rats with severe ataxia limb dystonia and mortality in % compared to control. Side hyperkinetic effects were evaluated in the “open field” test. In this test the locomotive activity in rats is determined. […] Registration of horizontal and vertical locomotive activity in OF assay was performed on the 10th and 18th day of the experiment, within 40 minutes after administration of the substance and 5 minutes before administration of rotenone. Side hyperkinetic effects was evaluated by the number of rats with a significant (at least 50% compared with the first day of the experiment) increase in horizontal and vertical activity (hyperkinesia) as a % of the total number of rats in group.
Anti-parkinsonian effect of therapy in rats with rotenone-induced parkinsonism was estimated according to elimination of extrapyramidal disorders (catalepsy) and oligokinesia in the “open field” test. The neuro-protective effect of therapy was evaluated by the elimination of ataxia and mortality in rats with rotenone-induced PSP. Hyperkinetic side action (hyper-locomotion) was evaluated by increased horizontal and vertical activity in the open field at the 10th and 18th day of the experiment, calculated in % compared to the first day of the experiment.
The neuro-protective effect in the experimental groups of rats with rotenone-induced PSP was evaluated due the elimination of ataxia and mortality caused by neurotoxic action of rotenone. Ataxia is typical incoordination neurotoxic effect of rotenone manifested in uncoordinated movements and hyper-locomotion, replaced by hypokinesia and stereotypes, and in severe cases a complete violation of antigravity reflexes, falling on its side and akinesia. Assessment of the severity of ataxia in scores was performed using the following scale: (+) uncoordinated movement, hyperkinesia; (++) significant incoordination, hypokinesia, stereotypes, falling on its side; (+++) complete violation of antigravity reflexes, akinesia. Ataxia registration was performed twice daily, 30 minutes before administration of rotenone and 180 minutes after administration of rotenone. For each experimental group on a daily basis, throughout the whole period of observation number of rats with severe ataxia (++−+++) and mortality in % of the total number of rats in group was determined. The neuro-protective effect of therapy (effects on rate of ataxia and lethality) in rats with PSP was determined at days 12 and 19 of the experiment as reducing the number of rats with severe ataxia and mortality in % compared to control. Side hyperkinetic effects were evaluated in the “open field” test. In this test the locomotive activity in rats is determined. […]

Wistar rats [2] = assay: Rotenone-induced PSP: severe ataxia, limb dystonia and lethality; format: in vivo, rat; settings: for Severe ataxia sustained dystonic postures and lethality (% of group): ataxia and limb dystonia ++-+++; for [lethality] (% of group): value in brackets
Protocol: The neuro-protective effect in the experimental groups of rats with rotenone-induced PSP was evaluated due the elimination of ataxia, limb dystonia and mortality caused by cerebellar neurotoxic action of rotenone (J. Neurochem., 2005, Vol. 95(4):930-9).
Ataxia and limb dystonia is typical incoordination neurotoxic effect of rotenone manifested in uncoordinated movements and hyper-locomotion, replaced by hypokinesia and stereotypes, and in severe cases a complete violation of antigravity reflexes, falling on its side dystonic posture and akinesia. Assessment of the severity of ataxia and limb dystonia in scores was performed using the following scale: (+) uncoordinated movement, hyperkinesia; (++) significant incoordination, hypokinesia, stereotypes, falling on its side; frequent spontaneous dystonic postures (+++) complete violation of antigravity reflexes, akinesia, sustained dystonic posture (J. Neurosci., 2014, 27; 34(35):11723-32)
as §1
The neuro-protective effect in the experimental groups of rats with rotenone-induced PSP was evaluated due the elimination of ataxia and mortality caused by neurotoxic action of rotenone. Ataxia is typical incoordination neurotoxic effect of rotenone manifested in uncoordinated movements and hyper-locomotion, replaced by hypokinesia and stereotypes, and in severe cases a complete violation of antigravity reflexes, falling on its side and akinesia. Assessment of the severity of ataxia in scores was performed using the following scale: (+) uncoordinated movement, hyperkinesia; (++) significant incoordination, hypokinesia, stereotypes, falling on its side; (+++) complete violation of antigravity reflexes, akinesia. Ataxia registration was performed twice daily, 30 minutes before administration of rotenone and 180 minutes after administration of rotenone. For each experimental group on a daily basis, throughout the whole period of observation number of rats with severe ataxia (++−+++) and mortality in % of the total number of rats in group was determined. The neuro-protective effect of therapy (effects on rate of ataxia and lethality) in rats with PSP was determined at days 12 and 19 of the experiment as reducing the number of rats with severe ataxia and mortality in % compared to control. Side hyperkinetic effects were evaluated in the “open field” test. In this test the locomotive activity in rats is determined. […] Registration of horizontal and vertical locomotive activity in OF assay was performed on the 10th and 18th day of the experiment, within 40 minutes after administration of the substance and 5 minutes before administration of rotenone.

Structure (SMILES) | Hyperkmesia (% of group) (Wistar rats [1]; Day 10, levodopa 10 mg/kg oral) | Hyperkmesia (% of group) (Wistar rats [1]; Day 10, levodopa 20 mg/kg oral) | Hyperkmesia (% of group) (Wistar rats [1]; Day 18, levodopa 10 mg/kg oral) | Hyperkmesia (% of group) (Wistar rats [1]; Day 18, levodopa 20 mg/kg oral) | Severe ataxia sustained dystonic postures and lethality (% of group) (Wistar rats [2]; Day 12, levodopa 10 mg/kg oral) | [lethality] (% of group) (Wistar rats [2]; Day 12, levodopa 10 mg/kg oral) | Severe ataxia sustained dystonic postures and lethality (% of group) (Wistar rats [2]; Day 12, levodopa 20 mg/kg oral) | [lethality] (% of group) (Wistar rats [2]; Day 12, levodopa 20 mg/kg oral) | Severe ataxia sustained dystonic postures and lethality (% of group) (Wistar rats [2]; Day 19, levodopa 10 mg/kg oral) | [lethality] (% of group) (Wistar rats [2]; Day 19, levodopa 10 mg/kg oral) | Severe ataxia sustained dystonic postures and lethality (% of group) (Wistar rats [2]; Day 19, levodopa 20 mg/kg oral) | [lethality] (% of group) (Wistar rats [2]; Day 19, levodopa 20 mg/kg oral) | Hyperkmesia (% of group) (Wistar rats [1]; Day 10, memantine 5 mg/kg oral) | Hyperkmesia (% of group) (Wistar rats [1]; Day 18, memantine 5 mg/kg oral) | Severe ataxia sustained dystonic postures and lethality (% of group) (Wistar rats [2]; Day 12, memantine 5 mg/kg oral) | [lethality] (% of group) (Wistar rats [2]; Day 12, memantine 5 mg/kg oral) | Severe ataxia sustained dystonic postures and lethality (% of group) (Wistar rats [2]; Day 19, memantine 5 mg/kg oral) | [lethality] (% of group) (Wistar rats [2]; Day 19, memantine 5 mg/kg oral)
N[C@@H](Cc1ccc(O)c(O)c1)C(=O)O [Levodopa, L-3,4-dihydroxyphenylalanine] | 0 % of group | 88 % of group | 0 % of group | 75 % of group | 14 % of group | 0 % of group | 0[0] % of group | 0[0] % of group | 42 % of group | 14 % of group | 24 % of group | 0 % of group |  |  |  |  |  | 
CC12CC3CC(C)(C1)CC(N)(C3)C2 [Memantine, memantine] |  |  |  |  |  |  |  |  |  |  |  |  | 40 % of group | 60 % of group | 0 % of group | 17 % of group | 17[17] % of group | 17[17] % of group
